The source made the active and inactive calls.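 The calls were made as follows: active = compounds lowering labeled HDL uptake signal, with AC50 at most ten times the top tested dose; inconclusive = flat partial inhibition between 30 and 70% or unreliable fit; inactive = the rest.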
Test system: ldlA[mSR-BI] CHO cells, DiI-HDL uptake fluorescence, 3 h
Experiment: blockers of fluorescent HDL lipid uptake via SR-BI – ldlA[mSR-BI] CHO cells, dry powder samples, dose response (AID 540354)
Settings: not given
`CC(C)OCCCNC(=O)c1ccc(C2SCC(=O)N2Cc2ccco2)cc1` (stereo not drawn) showed an AC50 of 1380 nM.
`COc1cccc(-c2csc(N3CCN(C(=S)Nc4cccc(Cl)c4)CC3)n2)c1` gave an AC50 of 1890 nM.
Work on `Cc1cc(C(=O)C(C)OC(=O)C2=NNC(=O)CC2)c(C)n1-c1ccc(OC(F)F)cc1` (stereo not drawn) yielded an AC50 of 1300 nM.
Work on `C[C@H](CO)N1C[C@H](C)[C@@H](CN(C)S(=O)(=O)c2ccc(F)cc2)Oc2ccc(NC(=O)Cc3cn(C)c4ccccc34)cc2C1=O` yielded an AC50 of 38500 nM.
`O=C(Nc1ccccc1Cl)c1ccccc1NS(=O)(=O)c1ccccc1` showed an AC50 of 33300 nM.
Molecule `C[C@H]1CN([C@@H](C)CO)C(=O)c2cccc(NC(=O)Nc3ccccc3)c2O[C@@H]1CN(C)Cc1ccc(C(F)(F)F)cc1` has an AC50 of 28000 nM.
`O=C(Nc1ccc(-c2nc3ccc(NC(=O)c4ccccc4[N+](=O)[O-])cc3[nH]2)cc1)c1ccccc1[N+](=O)[O-]` showed an AC50 of 251 nM.
For `C[C@H]1CN([C@@H](C)CO)C(=O)c2cccc(NC(=O)Nc3ccccc3)c2O[C@@H]1CN(C)Cc1ccc(Cl)c(Cl)c1`, the AC50 was 1500 nM.
With `CCc1sc(N2C(=O)C3C4CCC(C4=C(C)C)C3C2=O)nc1-c1ccccc1` (stereo not drawn) the AC50 was 754 nM.
Work on `O=C(Nc1ccc(-c2nc3ccc(NC(=O)c4ccccc4)cc3[nH]2)cc1)c1ccccc1` yielded an AC50 of 526 nM.
With `C[C@@H]1CN([C@H](C)CO)C(=O)c2cc(NC(=O)Cc3cn(C)c4ccccc34)ccc2O[C@H]1CN(C)S(=O)(=O)c1ccc(Cl)cc1` the AC50 was 454 nM.
`Cc1ccc(-c2nnc(N3CCC(C)CC3)c3ccccc23)cc1C` showed an AC50 of 197 nM.
For `COC(=O)c1cn(C(=O)c2cccc3ccccc23)c2ccccc12`, the AC50 was 3610 nM.
Molecule `Cc1ccccc1NC(=O)NCC1CCN(c2ccc(S(=O)(=O)N3CCOCC3)cc2)CC1` has an AC50 of 262 nM.
`O=C(Nc1cc(C(F)(F)F)ccc1Cl)c1ccccc1NS(=O)(=O)c1ccc(Cl)cc1` gave an AC50 of 1380 nM.
With `Cc1cc(C)n(CC(=O)NC2CCCc3c2cnn3-c2ccc(C)c(C)c2)n1` (stereo not drawn) the AC50 was 376 nM.
`O=C(Nc1cccc(NC(=O)c2cc([N+](=O)[O-])ccc2Cl)n1)c1cc([N+](=O)[O-])ccc1Cl` showed an AC50 of 1960 nM.
`O=C(Nc1cc(Cl)ccc1Cl)c1cc(Br)ccc1NS(=O)(=O)c1ccc(Cl)c([N+](=O)[O-])c1` showed an AC50 of 426 nM.
`C[C@H]1CN([C@@H](C)CO)C(=O)c2cccc(N(C)C)c2O[C@@H]1CN(C)Cc1ccc(Cl)c(Cl)c1` gave an AC50 of 42400 nM.
`C[C@@H]1CN([C@H](C)CO)C(=O)c2cc(NC(=O)Cc3cn(C)c4ccccc34)ccc2O[C@H]1CN(C)S(C)(=O)=O` gave an AC50 of 18200 nM.
With `CC(C)NC(=O)Nc1cccc2c1O[C@H](CN(C)Cc1ccc(Cl)c(Cl)c1)[C@@H](C)CN([C@@H](C)CO)C2=O` the AC50 was 1050 nM.
`C[C@H]1CN([C@@H](C)CO)C(=O)c2cccc(NC(=O)Nc3ccccc3)c2O[C@@H]1CN(C)Cc1ccccc1` gave an AC50 of 13400 nM.
For `COc1ccc(OC)c(CCNC(=O)c2ccc3c(c2)N(Cc2ccc(F)cc2)CCS3)c1`, the AC50 was 559 nM.
In the case of `CC(OC(=O)c1cccc(NS(C)(=O)=O)c1)C(=O)Nc1ccc(N2CCOCC2)cc1` (stereo not drawn), the AC50 is reported as 335 nM.
`O=C(Nc1ccc(Cl)cc1C(=O)c1ccc(Cl)cc1)c1cc(Br)ccc1NS(=O)(=O)c1ccc(Cl)cc1` showed an AC50 of 494 nM.
For `CCc1cc2cc3c(cc2nc1SCC(=O)OC(C)C)OCO3`, the AC50 was 79 nM.
`Cc1ccc2oc(-c3cccc(NC(=O)c4cc(-n5cnnc5)ccc4Cl)c3)nc2c1` showed an AC50 of 593 nM.
In the case of `O=C(Nc1ccc(-c2nc3cc(NC(=O)c4ccccc4[N+](=O)[O-])ccc3o2)cc1)c1ccccc1[N+](=O)[O-]`, the AC50 is reported as < 15 nM.
In the case of `O=C(Nc1ccc(-c2nc3ccc(NC(=O)c4ccc(Cl)cc4)cc3[nH]2)cc1)c1ccc(Cl)cc1`, the AC50 is reported as < 15 nM.
`C[C@@H]1CN([C@H](C)CO)C(=O)c2cc(NC(=O)Cc3cn(C)c4ccccc34)ccc2O[C@H]1CN(C)S(=O)(=O)c1ccc(F)cc1` gave an AC50 of 1090 nM.
For `C[C@H](CO)N1C[C@H](C)[C@H](CN(C)S(=O)(=O)c2ccc(F)cc2)Oc2ccc(NC(=O)CCC(F)(F)F)cc2C1=O`, the AC50 was > 35000 nM (inactive).
In the case of `C[C@@H]1CN([C@H](C)CO)C(=O)c2cc(NC(=O)Cc3cn(C)c4ccccc34)ccc2O[C@H]1CN(C)C(=O)Nc1ccc(F)cc1`, the AC50 is reported as 3290 nM.
With `O=C(Nc1ccc(-c2nc3cc(NC(=O)c4ccc(NC(=O)c5cccc6ccccc56)cc4)ccc3[nH]2)cc1)c1ccc(NC(=O)c2cccc3ccccc23)cc1` the AC50 was < 15 nM.
`CC(C)(C)NC(=O)N1CCN(c2ncccc2C(F)(F)F)CC1` gave an AC50 of 292 nM.
Molecule `O=C(Nc1cc(Cl)ccc1Cl)c1cc(Cl)ccc1NS(=O)(=O)c1ccc(Cl)c([N+](=O)[O-])c1` has an AC50 of 444 nM.
`CCOc1ccccc1/C=C/c1onc(C)c1S(=O)(=O)N1CCC(C(=O)NC(C)(C)C)CC1` gave an AC50 of 77 nM.
`CCn1c(COc2c(C)cccc2C)nnc1SCC(=O)N1CCN(c2ccccc2)CC1` gave an AC50 of 2790 nM.
`C[C@@H]1CN([C@@H](C)CO)C(=O)c2cc(NC(=O)Cc3cn(C)c4ccccc34)ccc2O[C@H]1CN(C)S(=O)(=O)c1ccc(F)cc1` gave an AC50 of 2190 nM.
For `Nc1ccc(C(=O)Nc2ccc(-c3nc4ccc(NC(=O)c5ccc(N)cc5)cc4[nH]3)cc2)cc1`, the AC50 was 813 nM.
For `C[C@H]1CN([C@@H](C)CO)C(=O)c2cccc(NC(=O)Nc3ccc(F)cc3)c2O[C@@H]1CN(C)Cc1ccc(Cl)c(Cl)c1`, the AC50 was 1390 nM.
Work on `CNC[C@@H]1Oc2ccc(NC(=O)Cc3cn(C)c4ccccc34)cc2C(=O)N([C@H](C)CO)C[C@H]1C` yielded an AC50 of 48000 nM.
Molecule `C[C@@H]1CN([C@H](C)CO)C(=O)c2cc(NC(=O)Cc3cn(C)c4ccccc34)ccc2O[C@H]1CN(C)S(=O)(=O)c1ccccc1` has an AC50 of 1290 nM.
For `C[C@@H]1CN([C@H](C)CO)C(=O)c2cc(NC(=O)Cc3cn(C)c4ccccc34)ccc2O[C@@H]1CN(C)S(=O)(=O)c1ccc(F)cc1`, the AC50 was 25700 nM.
For `CCC(=O)N1CCc2cc(-c3csc(NC(=O)c4ccco4)n3)ccc21`, the AC50 was 17 nM.
For `CCOc1ccc(NC(=O)CN2CCN(CC(=O)Nc3cc(OC)cc(OC)c3)CC2)cc1`, the AC50 was < 30 nM.
Molecule `C[C@H]1CN([C@@H](C)CO)C(=O)c2cccc(NC(=O)Nc3ccccc3)c2O[C@@H]1CN(C)C` has an AC50 of 17300 nM.
Molecule `O=C(Nc1ccc(-c2nc3cc(NC(=O)c4ccccc4Cl)ccc3o2)cc1)c1ccccc1Cl` has an AC50 of 16 nM.
For `C[C@H]1CN([C@@H](C)CO)C(=O)c2cccc(NS(C)(=O)=O)c2O[C@@H]1CN(C)Cc1ccc(Cl)c(Cl)c1`, the AC50 was 19400 nM.
Work on `O=C(Nc1ccccc1)c1ccccc1NS(=O)(=O)c1ccc(Cl)cc1` yielded an AC50 of 47800 nM.
In the case of `COc1ccc([C@H]2CC(=O)C=C(c3cccc4c3sc3ccccc34)C2)cc1OC`, the AC50 is reported as 208 nM.
Work on `COc1ccc(-c2nnn(CC(=O)N(C3CCCCC3)C(C)C(=O)NC3CCCC3)n2)cc1OC` (stereo not drawn) yielded an AC50 of 28 nM.
With `CCOC(=O)N1CCC(NC(=O)c2ccc3c(c2)N(Cc2ccc(F)cc2)CCS3)CC1` the AC50 was 32 nM.
`CCOC(=O)Nc1cccc(NC(=O)c2cc(OC)cc(OC)c2)c1` gave an AC50 of 546 nM.
For `Cc1cc(C)c2c(c1)NC(c1cc3c(cc1Br)OCO3)C1CC=CC21` (stereo not drawn), the AC50 was 505 nM.
Work on `Cc1cc(SC(C)C(=O)Nc2ncc(Cl)cc2Cl)nc2ccccc12` (stereo not drawn) yielded an AC50 of 491 nM.
In the case of `N#Cc1sc2nc(C3CC3)cc(-c3ccc(Cl)cc3)c2c1N`, the AC50 is reported as 1640 nM.

Test system: not listed separately
Experiment: as above
Settings: ldlA[mSR-BI] CHO cells, DiI-HDL uptake fluorescence, 3 h; at 35 µM (top of the series)
In the case of `C[C@H](CO)N1C[C@H](C)[C@H](CN(C)S(=O)(=O)c2ccc(F)cc2)Oc2ccc(NS(C)(=O)=O)cc2C1=O`, the activity change, negative = inhibition is reported as -1.08% (inactive).
With `C[C@H](CO)N1C[C@H](C)[C@H](CN(C)S(=O)(=O)c2ccc(F)cc2)Oc2ccc(NC(=O)Cc3ccccc3)cc2C1=O` the activity change, negative = inhibition was -3.31% (inactive).

Reference: PubChem BioAssay AID540354 (Broad Institute, 2011)
